According to patent publication US11633421B2, “Use of NAD precursors for improving maternal health and/or offspring health” (UNIVERSITY OF IOWA RESEARCH FOUNDATION, priority 2016, dated 2023):

What was measured:
Assay type in all cases: in vivo, mice
[1] = Body composition of adult offspring; settings: 90 days old
Method: FIGS. 23A-C. 69 days after their mother's intervention, 90 day-old adult offspring of NR-supplemented mothers have less fat mass. The order of the bars from left to right are: males of normal chow (NC) mothers (white with light grey outline), followed by males of NR-supplemented mothers (filled light grey), followed by females of NC mothers (white with dark grey outline), followed by females of NR-supplemented mothers (filled dark grey). At 90 days old, body composition analysis was performed on the mice. […] There is no effect on the total amount of lean mass (23C). Particularly because the maternal intervention produced somewhat bigger weanlings with more fat and lean mass, the protection against age-induced weight gain was unanticipated.

[2] = Open field test of offspring
Method: The order of the bars from left to right are: males of normal chow (NC) mothers (white with light grey outline), followed by males of NR-supplemented mothers (filled light grey), followed by females of NC mothers (white with dark grey outline), followed by females of NR-supplemented mothers (filled dark grey). […] These adults were treated identically ever since weaning. The only difference is whether the mother was NR-supplemented for 21 days. They are faster and more adventurous. The order of the bars from left to right are: males of normal chow (NC) mothers (white with light grey outline), followed by males of NR-supplemented mothers (filled light grey), followed by females of NC mothers (white with dark grey outline), followed by females of NR-supplemented mothers (filled dark grey). At 15 days of age, it was observed that the offspring of NR-supplemented mothers were more physically active. In this experiment, the physical activity of male and female offspring of mothers supplemented or not with NR at 15 days of age was quantified. […] At 21 days, the offspring were removed from their mothers and put on normal chow […]. While offspring of NR could have been put on NR chow, we aimed to determine if the 21 day intervention to their mothers was sufficient for a lasting effect on their neurocognitive and/or physical development.

UCP1 = UCP1 expression in mammary tissue; settings: NR-supplemented vs NC mothers
Excerpt: (§1) FIGS. 14A-B. Postpartum NR supplementation promotes mammary gland development (n=5 mice per group) (FIG. 14A). NR increases heat loss by increasing expression of UCP1 (FIG. 14B). […] In addition, the size of the mammary tissue itself is greater in NR-supplemented mothers than in non-supplemented mothers (FIG. 14A).

[3] = Brain size and caudate putamen of offspring
Excerpt: FIGS. 24A-D. 69 days after their mother's intervention, the female offspring tend to have larger brains […] (FIG. 24A). Pups of NR-supplemented moms show advanced pruning of the caudate putamen at day 22 (FIGS. 24B-C); however, the caudate putamen in pups from NR-supplemented mothers grows to a normal size in adulthood (FIG. 24D). The order of the bars from left to right are: males of normal chow (NC) mothers (white with light grey outline), followed by males of NR-supplemented mothers (filled light grey), followed by females of NC mothers (white with dark grey outline), followed by females of NR-supplemented mothers (filled dark grey). At 91 days, the mice were sacrificed and examined with respect to their brains. In FIG. 24A, it was shown that female mice from NR-supplemented mothers have larger brains in adulthood. We hypothesized that the caudate putamen, which is the motor learning center of the brain, may have developed more rapidly in mice whose mothers had been NR-supplemented either due to the increased quality and/or quantity of milk they received and/or improved maternal care.

[4] = Mammary gland development (size of mammary tissue); settings: NR-supplemented vs non-supplemented mothers
Excerpt: as §1

For `NC(=O)c1ccc[n+]([C@@H]2O[C@H](CO)[C@@H](O)[C@H]2O)c1` [NR, nicotinamide riboside], the “total amount of lean mass of adult offspring” value [1] was “no effect”, the “body size of adult offspring” value ([1]; male offspring) was “slightly smaller” and the “adipose tissue of adult offspring” value ([1]; males and females, 69 days after mother's intervention) was “less adipose tissue”. For the same compound, the “physical activity in open field test” value ([2]; 15 days of age, first 5 minutes) was “much more physically active”, the “time in the center of the open field test” value ([2]; 15 days of age, males, middle 5 minute epoch) was “significant amount of time in the center” and the “time in the center of open field test” value ([2]; 70 day-old adult males) was “less time in the center”. For the same compound, the “immobile time in open field test” value ([2]; 70 day-old adults) was “tendency toward less immobile time”, the “speed in open field test” value ([2]; 70 day-old adults) was “move faster” and the “distance covered in open field test” value ([2]; 70 day-old adults, 49 days after mother's intervention) was “cover more distance”. The “expression of UCP1 in mammary tissue” value (UCP1) was “increase in expression”, the “brain size in adulthood” value ([3]; 91 days, female mice from NR-supplemented mothers) was “larger” and the “caudate putamen in adults” value ([3]; adult offspring) was “not affected”. For the same compound, the “caudate putamen pruning (area of PSD95 staining)” value ([3]; female weanlings) was “clearly advanced pruning”, the “caudate putamen size in weanlings” value ([3]; weanlings at 21 days) was “slightly smaller” and the “size of the mammary tissue” value [4] was “greater”.
